Reference: article PMC11462260, “Anthricin-induced hyperactive proteasome and its molecular mechanism” (Biochemistry and Biophysics Reports, 2024)

Target: T1, human 20S proteasome (Homo sapiens, UniProt P28072+P28074+Q99436)
T1 construct: gene PSMB6; native 20S core particle from human erythrocytes (commercial), 28 subunits of 14 types, lysine-biotinylated, on streptavidin beads
Experiment: pull-down on biotinylated proteasome beads, LC-MS/MS of eluate
Conditions: 20 uM anthricin, 250 pmol proteasome, 30 min, room temperature, D-PBS with 0.1 % BSA; binding site not mapped experimentally

In the case of `COc1cc([C@@H]2c3cc4c(cc3C[C@H]3COC(=O)[C@@H]32)OCO4)cc(OC)c1OC` [anthricin], the “pull-down on biotinylated proteasome beads, LC-MS/MS of eluate” value is reported as “When anthricin was mixed with the proteasome-immobilized beads, a clear peak corresponding to anthricin was detected”.
